Earlier results, collected in publication PMC9653995, “New Positive TRPC6 Modulator Penetrates Blood–Brain Barrier, Eliminates Synaptic Deficiency and Restores Memory Deficit in 5xFAD Mice” (International Journal of Molecular Sciences, 2022).

Tested on: TRPC3
Conditions: cited from earlier work

O=C(c1cc2c(s1)CCCCC2)N1CCC(n2c(=O)[nH]c3ccccc32)CC1 [GSK1702934A, reference compound]
activation of TRPC3: activate TRPC3
